Test results taken from ChEMBL document CHEMBL1201862, “PubChem BioAssay data set” (2004).
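In this assay, cells in 96-well plates receive the compound at five concentrations for 48 hours. Endpoints are linearly interpolated between the surrounding concentrations. The concentration for 50% growth inhibition is given as GI50.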 The source made the active and inactive calls. No stated cut-off is given here; in the data, active = GI50 up to about 1.1 µM and inactive = higher.

How the values were obtained:
Experiment in all cases: NCI-60 cell line screen, 48 h
U-251 = tested on: U-251
HT-29 = tested on: HT-29
SK-MEL-2 = tested on: SK-MEL-2
SK-MEL-28 = tested on: SK-MEL-28
RXF 393 = tested on: RXF 393
K562 = tested on: K562
UO-31 = tested on: UO-31
CCRF-CEM = tested on: CCRF-CEM
NCI-H23 = tested on: NCI-H23
SK-OV-3 = tested on: SK-OV-3
A549 = tested on: A549
SF-539 = tested on: SF-539
HCT-15 = tested on: HCT-15
Malme-3M = tested on: Malme-3M
LOX IMVI = tested on: LOX IMVI
NCI-H226 = tested on: NCI-H226
OVCAR-3 = tested on: OVCAR-3
M14 = tested on: M14
TK-10 = tested on: TK-10

| Structure (SMILES) | GI50 (U-251) | GI50 (HT-29) | GI50 (SK-MEL-2) | GI50 (SK-MEL-28) | GI50 (RXF 393) | GI50 (K562) | GI50 (UO-31) | GI50 (CCRF-CEM) | GI50 (NCI-H23) | GI50 (SK-OV-3) | GI50 (A549) | GI50 (SF-539) | GI50 (HCT-15) | GI50 (Malme-3M) | GI50 (LOX IMVI) | GI50 (NCI-H226) | GI50 (OVCAR-3) | GI50 (M14) | GI50 (TK-10) |
| --- | --- | --- | --- | --- | --- | --- | --- | --- | --- | --- | --- | --- | --- | --- | --- | --- | --- | --- | --- |
| NC(Cc1cc(I)c(O)c(I)c1)C(=O)O (stereo unspecified) | > 500 µM (inactive) | > 346 µM (inactive) | > 500 µM (inactive) | > 500 µM (inactive) | 252 µM (inactive) | > 500 µM (inactive) | > 500 µM (inactive) | 255 µM (inactive) | > 287 µM (inactive) | > 500 µM (inactive) | > 500 µM (inactive) | > 392 µM (inactive) | 307 µM | > 500 µM (inactive) | 209 µM (inactive) | > 500 µM (inactive) | > 500 µM (inactive) |  |  |
| C[C@]12CCC(=O)C=C1CC[C@@H]1C2CC[C@]2(C)NC(=O)C(C#N)CC12 (stereo partly specified) | > 100 µM (inactive) | 30.8 µM (inactive) | > 100 µM (inactive) | > 100 µM (inactive) | > 100 µM (inactive) | > 100 µM (inactive) | > 100 µM (inactive) | > 100 µM (inactive) | > 100 µM (inactive) | > 100 µM (inactive) | > 100 µM (inactive) | > 100 µM (inactive) | > 100 µM | > 100 µM (inactive) |  | > 100 µM (inactive) | > 100 µM (inactive) | > 100 µM (inactive) | > 100 µM (inactive) |
| CCC1C(=O)C[C@H]2[C@@H]3C(O)CC4=CC(=O)CC[C@]4(C)[C@H]3CC[C@]12C (stereo partly specified) | > 50 µM (inactive) | > 50 µM (inactive) | > 50 µM (inactive) | > 50 µM (inactive) |  | > 50 µM (inactive) | > 50 µM (inactive) | > 50 µM (inactive) | > 50 µM (inactive) | > 50 µM (inactive) | > 50 µM (inactive) | > 50 µM (inactive) | > 50 µM | 25.8 µM (inactive) | > 50 µM (inactive) |  | > 50 µM (inactive) | > 50 µM (inactive) | > 50 µM (inactive) |
| CN[C@@H](C)[C@@H](NC)c1ccccc1 | 1.52 µM (inactive) | > 100 µM (inactive) |  | > 100 µM (inactive) | > 100 µM (inactive) | > 100 µM (inactive) | > 100 µM (inactive) | > 100 µM (inactive) | > 100 µM (inactive) | > 100 µM (inactive) | > 100 µM (inactive) | > 100 µM (inactive) | > 100 µM |  | > 100 µM (inactive) | > 100 µM (inactive) | > 100 µM (inactive) | > 100 µM (inactive) | > 100 µM (inactive) |
| CCNCCCCNCC | > 3230 µM (inactive) | > 3750 µM (inactive) | > 3750 µM (inactive) | > 3750 µM (inactive) | > 3260 µM (inactive) | > 3750 µM (inactive) | > 1230 µM (inactive) | 1600 µM (inactive) | > 3750 µM (inactive) | > 3750 µM (inactive) | > 3750 µM (inactive) | > 3750 µM (inactive) | > 3750 µM | > 3750 µM (inactive) | > 3750 µM (inactive) | 2420 µM (inactive) | > 3750 µM (inactive) |  |  |
| [N-]=[N+]=CC(=O)CCC(NC(=O)C(CCC(=O)C=[N+]=[N-])NC(=O)CCC(N)C(=O)O)C(=O)O (stereo unspecified) | > 100 µM (inactive) | > 100 µM (inactive) | > 100 µM (inactive) | > 100 µM (inactive) | > 100 µM (inactive) | > 100 µM (inactive) | > 100 µM (inactive) | > 100 µM (inactive) | > 100 µM (inactive) | > 100 µM (inactive) | > 100 µM (inactive) | > 100 µM (inactive) | > 100 µM | > 100 µM (inactive) | > 100 µM (inactive) | > 100 µM (inactive) | > 100 µM (inactive) |  |  |
| CC1=N/C(=C/c2ccc3c(c2)OCO3)C(=O)O1 | > 100 µM (inactive) | > 100 µM (inactive) | > 100 µM (inactive) | > 100 µM (inactive) | > 100 µM (inactive) | > 100 µM (inactive) | > 100 µM (inactive) | > 100 µM (inactive) | > 100 µM (inactive) | > 100 µM (inactive) | > 100 µM (inactive) | > 100 µM (inactive) | > 100 µM | > 100 µM (inactive) | > 100 µM (inactive) |  | > 100 µM (inactive) | > 100 µM (inactive) | > 100 µM (inactive) |
| CC(=O)Nc1cccc2[nH]c3ccccc3c(=O)c12 | 24.1 µM (inactive) | 17 µM (inactive) | 18.6 µM (inactive) | 31.5 µM (inactive) |  | 21.8 µM (inactive) | 10.2 µM (inactive) | 21.5 µM (inactive) | 12.3 µM (inactive) | 32.1 µM (inactive) | 21.6 µM (inactive) | 21.6 µM (inactive) | 14.2 µM | 22.3 µM (inactive) |  | 14.8 µM (inactive) | 20.1 µM (inactive) | 30.9 µM (inactive) | 20.4 µM (inactive) |
| CC(C)=C[C@@H]1C[C@H](C)[C@H]2CC[C@H](C)[C@H]3C(=O)C(O)=C(C)C(=O)[C@]123 | > 100 µM (inactive) | > 100 µM (inactive) |  | > 100 µM (inactive) |  | > 100 µM (inactive) | > 100 µM (inactive) | 99.1 µM (inactive) | > 100 µM (inactive) | > 100 µM (inactive) | 57.8 µM (inactive) | > 100 µM (inactive) | > 100 µM | > 100 µM (inactive) | > 100 µM (inactive) | 87.3 µM (inactive) | > 100 µM (inactive) | > 100 µM (inactive) | > 100 µM (inactive) |
| COc1ccc(C(c2ccc(C(C)C)cc(=O)c2O)c2c(O)cc3oc(-c4ccccc4)cc(=O)c3c2O)cc1 (stereo unspecified) | 6.43 µM (inactive) | 17.7 µM (inactive) |  | 17.1 µM (inactive) | 3.71 µM (inactive) | 3.03 µM (inactive) |  | 4.04 µM (inactive) | 4.79 µM (inactive) | 12.5 µM (inactive) | 3.35 µM (inactive) | 3.05 µM (inactive) | 6.9 µM |  | 14.6 µM (inactive) |  | 5.86 µM (inactive) | 7.26 µM (inactive) | 9.42 µM (inactive) |
| CC(=O)OC(C)C(=O)C1c2cccc(O)c2C(=O)c2c(O)cc(C)cc21 (stereo unspecified) | 0.26 µM (active) | 1.66 µM (inactive) | 0.429 µM (active) | 1.01 µM (active) | 0.259 µM (active) | 0.354 µM (active) | 0.261 µM (active) | 0.711 µM (active) | 0.324 µM (active) | 0.546 µM (active) | 0.322 µM (active) | 0.254 µM (active) | 0.479 µM | 0.56 µM (active) | 0.483 µM (active) | 0.319 µM (active) | 0.427 µM (active) |  | 1.42 µM (inactive) |
| COc1ccc(CCn2ccc(C)n2)c(OC)c1 | > 100 µM (inactive) | > 100 µM (inactive) |  | > 100 µM (inactive) | > 100 µM (inactive) | > 100 µM (inactive) | 46.6 µM (inactive) | > 100 µM (inactive) | > 100 µM (inactive) | > 100 µM (inactive) | > 100 µM (inactive) | > 100 µM (inactive) | > 100 µM | > 100 µM (inactive) | > 100 µM (inactive) |  | > 100 µM (inactive) | > 100 µM (inactive) | > 100 µM (inactive) |
| C=C1N(C)c2ccc(S(=O)(=O)c3ccc4c(c3)C(C)(C)C(=C)N4C)cc2C1(C)C | 31.5 µM (inactive) | 47 µM (inactive) | 41.3 µM (inactive) | > 100 µM (inactive) |  |  | 51.6 µM (inactive) | 50.1 µM (inactive) | 27.4 µM (inactive) | > 100 µM (inactive) | 28.6 µM (inactive) | > 100 µM (inactive) | 59.7 µM | 19.5 µM (inactive) |  | > 100 µM (inactive) | 25.4 µM (inactive) | 31.2 µM (inactive) | 36.1 µM (inactive) |
| O=C(CC/C(C/C(=N/O)c1ccc(F)cc1)=N/O)N(Cc1ccccc1)Cc1ccccc1 | > 100 µM (inactive) | > 100 µM (inactive) | > 100 µM (inactive) | > 100 µM (inactive) | > 100 µM (inactive) | > 100 µM (inactive) | > 100 µM (inactive) | > 100 µM (inactive) | > 100 µM (inactive) |  | > 100 µM (inactive) | > 100 µM (inactive) | > 100 µM | > 100 µM (inactive) | > 100 µM (inactive) | > 100 µM (inactive) | > 100 µM (inactive) | > 100 µM (inactive) | > 100 µM (inactive) |
| C[C@H]1COC(c2ccccn2)=N1 | > 100 µM (inactive) | > 100 µM (inactive) | > 100 µM (inactive) | > 100 µM (inactive) | > 100 µM (inactive) | > 100 µM (inactive) | > 100 µM (inactive) | > 100 µM (inactive) | > 100 µM (inactive) | > 100 µM (inactive) | > 100 µM (inactive) | > 100 µM (inactive) | > 100 µM | > 100 µM (inactive) | > 100 µM (inactive) | > 100 µM (inactive) | > 100 µM (inactive) |  |  |
| CC12CCC3C(CCC4=CC(O)CCC43C=O)C1(O)CCC2c1ccc(=O)oc1 (stereo unspecified) | 0.00556 µM (active) | 0.00929 µM (active) | 0.0116 µM (active) | 0.05 µM (active) |  | 0.05 µM (active) | 0.027 µM (active) |  | 0.00226 µM (active) | 0.0113 µM (active) |  | 0.00385 µM (active) | 0.0508 µM |  | 0.00748 µM (active) | 0.0303 µM (active) | 0.00368 µM (active) |  |  |
| COc1cc(/C=C\c2cccnc2)cc(OC)c1OC | 33 µM (inactive) | 40.7 µM (inactive) |  | 69.3 µM (inactive) | 22.6 µM (inactive) | 24.5 µM (inactive) | 27.9 µM (inactive) | 25.7 µM (inactive) | 66.8 µM (inactive) |  | 42.1 µM (inactive) | 36.6 µM (inactive) | 39.4 µM | 64.9 µM (inactive) | 26.2 µM (inactive) | > 100 µM (inactive) | 54 µM (inactive) | 26.8 µM (inactive) | > 100 µM (inactive) |
